{
  "source": "patent US8282952B2",
  "about": "“Insect attractant” (Activetrad (Proprietary) Limited, priority 2007, dated 2012)",
  "key": {"Female medflies [1]": {"test_system": "Female medflies", "experiment": "Delta trap catches in temperature controlled room, released female medflies", "conditions": "for effect on medfly attraction when added to NATC 1%: Experiment 22"}, "Female medflies [2]": {"test_system": "Female medflies", "experiment": "Delta trap catches in orchards, released female medflies", "type": "in vivo, Ceratitis capitata"}},
  "data": [
    {"compound": "CC(=O)O", "note": "[acetic acid]", "values": [
      {"measurement": "effect of addition on medfly trap catches with TEA", "setting": "Female medflies [1]; Experiment 14, added to NATC + TEA", "result": "seems to decrease"}
    ]},
    {"compound": "CCOC(=O)CC(SP(=S)(OC)OC)C(=O)OCC", "note": "(centres unmarked) [Malathion]", "values": [
      {"measurement": "times more female medflies caught with poison than without it", "setting": "Female medflies [2]; in vivo", "result": "~1.5", "unit": "times"}
    ]},
    {"compound": "CC(=O)OCC[N+](C)(C)C.[Cl-]", "note": "[Acetyl choline chloride]", "values": [
      {"measurement": "times more attractive than the tri-ethanolamine mixtures", "setting": "Female medflies [1]; as amine in the NATC/amine/NH4Ac/Molasses mixture", "result": "about 3 times"},
      {"measurement": "more medflies attracted than Choline chloride (number)", "setting": "Female medflies [1]; in vivo", "result": 284.2},
      {"measurement": "more medflies attracted than Choline chloride (percent)", "setting": "Female medflies [1]; in vivo", "result": 93, "unit": "%"}
    ]},
    {"compound": "CN(C)Cc1c[nH]c2ccccc12", "note": "[Gramine]", "values": [
      {"measurement": "effect on medfly attraction when added to NATC 1%", "setting": "Female medflies [1]", "result": "suppressed medfly attraction"}
    ]},
    {"compound": "Cc1cnc(C)c(C)n1", "note": "[2,3,5-Trimethyl pyrazine]", "values": [
      {"measurement": "effect on medfly attraction when added to NATC 1%", "setting": "Female medflies [1]", "result": "suppressed medfly attraction"}
    ]},
    {"compound": "C=C(C)[C@H]1Cc2c(ccc3c2O[C@@H]2COc4cc(OC)c(OC)cc4[C@@H]2C3=O)O1", "note": "[Rotenone]", "values": [
      {"measurement": "effect of the bait poison combined with NATC in YP on female medfly trap catches", "setting": "Female medflies [2]; Experiment 7, 0.5% poison added to NATC 1% in YP vs NATC 1% in YP alone", "result": "small differences"}
    ]},
    {"compound": "CC(=O)O.N", "note": "[Ammonium acetate]", "values": [
      {"measurement": "attracting partner for the NATC-0.5%+TEA-0.5% combination compared with Maltol 0.5%", "setting": "Female medflies [1]; in vivo", "result": "stronger attracting partner"},
      {"measurement": "increase of trap catches by addition to the NATC-1%+TEA-1% mixture", "setting": "Female medflies [1]; in vivo", "result": 272.5, "unit": "%"}
    ]},
    {"compound": "COc1cccc(C(N)=O)c1", "note": "[3-Methoxy benzamide]", "values": [
      {"measurement": "effect on medfly attraction when added to NATC 1%", "setting": "Female medflies [1]", "result": "suppressed medfly attraction"}
    ]}
  ]
}
